Legend:
[1] = test system: anesthetized rats; assay: Mean arterial pressure (MAP) and heart rate (HR) in anesthetized rats; type: in vivo, rat (Sprague-Dawley)
Protocol: To determine blood pressure and heart rate, Sprague-Dawley rats (250-400 g) were anesthetized with ketolar and diazepam. The right carotid artery was catheterized for constant blood pressure and heart rate measurement by means of a pressure transducer connected to a PowerLab data acquisition system (ADInstruments). The left external jugular vein was catheterized for saline or drug infusion. 3 mg/kg nebivolol (n=6) or vehicle (50% glycofurol; n=4) was administered intravenously in anesthetized rats and MAP and HR were measured. […] The effect of nebivolol in combination with the type 5 phosphodiesterase (PDE-5) inhibitor sildenafil on hypotension and heart rate was studied in rats using the methods described above.

[2] = test system: human corpus cavernosum (HCC) strips; assay: Relaxation of human corpus cavernosum strips contracted with U46619; type: cell-based; details: for relaxation of HCC strips by cumulative addition: U46619 1-3 nM, nebivolol 1 nM to 0.1 mM; for relaxation of HCC strips by cumulative addition / effect on sildenafil-induced relaxation of HCC strips: sildenafil 1 nm to 10 μM; for effect on acetylcholine-induced endothelium-dependent relaxation of HCC strips: metoprolol 1 μM, nebivolol 0.3 μM; for effect on acetylcholine-induced endothelium-dependent relaxation of HCC strips / effect on sildenafil-induced relaxation of HCC strips: atenolol 1 μM; for effect on sildenafil-induced relaxation of HCC strips: nebivolol at 1 and 10 μM
Protocol: Specimens of human corpus cavernosum were obtained from organ donors and from impotent men at the time of penile prosthesis implantation. Tissues were placed in ice-cold M-400 solution (pH 7.4; 400 mOsm/kg, composition in w/v: 4.19% manitol, 0.2% KH2PO4, 0.97% K2HPO4.3H2O, 0.11% KCl and 0.08% NaHCO3) at the time of removal and transported to the laboratory for utilization within 16 h. Strips of human corpus cavemosum were mounted on force transducers in 8 ml organ baths (37° C.) containing physiological salt solution (PSS) continuously bubbled with 95% O2/5% CO2 mixture to maintain a pH of 7.4. Strips were contracted with the thromboxane receptor agonist U46619 (1-3 nM) and relaxation responses were evaluated by cumulative additions of compounds to the chambers.

[3] = test system: diabetic rats; assay: Erectile responses to cavernosal nerve electrical stimulation (CNES) in STZ-diabetic rats; type: in vivo, rat (Sprague-Dawley); details: for erectile responses after sildenafil compared with non diabetic rats treated with sildenafil: 10 days treatment, then sildenafil 0.3 mg/kg i.v.
Protocol: Male Sprague-Dawley rats were used as a model for this study. Diabetes was induced by a single injection of streptozotocin (STZ, 60 mg/kg; i.p.) dissolved in 0.1 M citric acid/trisodic citrate buffer (pH 4-4.5) and was assessed by glycemia determination 72 h after induction. Animals were kept, with free access to food and water, for 8 weeks before experimental assays. Eight weeks after induction of diabetes, rats show reduced erectile responses (Angulo et al., Naunyn-Schmiedeberg's Arch Pharmacol, 358(5), 529-37, 1998; Angulo et al., J. Sex Med., 2, 341-346, 2005). Blood glucose concentration was determined each week and just before the experiment. Insulin levels were not determined. Rats were anesthetized with ketolar and diazepam. The surgical procedure consisted of dissection and isolation of the right cavernous nerve through an abdominal midline incision and exposure of penile crura through a transverse perineal incision. Intracavernosal pressure (ICP) measurements were permitted by insertion of a 23-gauge needle into the right crus. The right carotid artery and left external jugular vein were catheterized for constant blood pressure measurement and saline infusion, respectively. Electrostimulation was performed with a delicate platinum bipolar hook electrode connected to a stimulator and current amplifier. The parameters of electrical stimulation consisted of pulses with a duration of 0.3 ms and 1.5 mA of current intensity for 1 min. Frequency-response curves were performed by applying stimulation at 1, 3 and 10 Hz with a lapse of 3 min between each increase of frequency (Angulo et al., J. Sex Med., 2, 341-346, 2005). […] After this period of treatment, the diabetic rats were anesthetized and ICP responses to electrical stimulation were evaluated. After an equilibration period, the PDE5 inhibitor sildenafil (0.3 mg/kg) or the vehicle (25% glycofurol) was intravenously administered. Forty five minutes later, ICP responses were again determined

[4] = test system: nitrite plus nitrate (NOx) in rat serum; assay: Serum nitrite plus nitrate (NOx) by Griess colorimetric method; type: in vivo; details: for effect on serum NOx concentration: i.v.: nebivolol 3 mg/kg, atenolol 3 mg/kg, vs vehicle
Protocol: Total NO derivatives (nitrites plus nitrates) were measured in pre-filtered (10,000 MW pore size) serum samples from the studied rats by the Griess colorimetric method, using a commercial kit for nitrite and nitrate determination from Cayman Chemical Co. (Ann Arbor, Mich.). Serum concentrations of NOx were determined 10 minutes after nebivolol administration.

[5] = test system: cGMP in penile tissue; assay: Penile tissue cGMP in STZ-diabetic rats; type: in vivo, rat (Sprague-Dawley); details: for cGMP content in penile tissue from diabetic rats after administration of sildenafil: then sildenafil 0.3 mg/kg i.v.
Protocol: (§1) Male Sprague-Dawley rats were used as a model for this study. Diabetes was induced by a single injection of streptozotocin (STZ, 60 mg/kg; i.p.) dissolved in 0.1 M citric acid/trisodic citrate buffer (pH 4-4.5) and was assessed by glycemia determination 72 h after induction. Animals were kept, with free access to food and water, for 8 weeks before experimental assays. Eight weeks after induction of diabetes, rats show altered in vivo vascular function (Angulo et al., Naunyn-Schmiedeberg's Arch Pharmacol, 358(5), 529-37, 1998) and reduced erectile responses (Angulo et al., J. Sex Med., 2, 341-346, 2005). Blood glucose concentration was determined each week and just before the experiment. Insulin levels were not determined. Plasma samples were collected, immediately frozen and stored at −80° C. until extraction for cyclic nucleotide assay. Samples were then precipitated in ethanol, centrifuged and the supernatant was dried under a nitrogen stream. Penile tissues were rapidly immersed in liquid nitrogen and were stored at −80° C. until extraction for cyclic nucleotide assay. […] After 10 days treatment, diabetic rats were anesthetized and erectile responses to cavernosal nerve electrical stimulation (CNES) were determined. After an equilibration period, the PDE-5 inhibitor sildenafil (0.3 mg/kg) or the vehicle (25% glycofurol) was intravenously administered. Forty five minutes later, erectile responses to CNES were again evaluated, and 5 min after CNES application, blood was collected for obtaining plasma and serum, and the penis was excised. Serum samples were immediately frozen until determinations of NOx and TBARS. Plasma and penile tissues were immediately frozen until determinations of cGMP.

[6] = test system: nitrite plus nitrate (NOx) in rat serum; assay: Serum NOx in STZ-diabetic rats; type: in vivo, rat (Sprague-Dawley); details: for effect on NOx content in sera from diabetic rats: 3 and 10 mg/kg/day s.c. for 10 days
Protocol: as §1, with “determined. Total NO derivatives (nitrites plus nitrates) were measured in pre-filtered (10,000 MW pore size) serum” for “determined. Plasma”, “samples from the studied rats by the Griess colorimetric method, using a commercial kit for nitrite” for “samples were collected, immediately frozen”, “and nitrate determination from Cayman Chemical Co. (Ann Arbor, Mich.). See […] et al., Methods Enzymol., 268, 142-151, 1996.” for “and stored at −80° C. until extraction for cyclic nucleotide assay. Samples were then precipitated in ethanol, centrifuged and the supernatant was dried under a nitrogen stream. Penile tissues were rapidly immersed in liquid nitrogen and were stored at −80° C. until extraction for cyclic nucleotide assay.”

[7] = 3 mg/kg i.v., vs vehicle (50% glycofurol)
[8] = 3 mg/kg/day s.c. for 10 days, sildenafil 0.3 mg/kg i.v.
[9] = 10 mg/kg/day s.c. for 10 days, sildenafil 0.3 mg/kg i.v., atenolol: measured as AUC of ICP
[10] = nebivolol 1 mg/kg i.v., pre-treatment sildenafil 0.3 mg/kg i.v.
[11] = nebivolol 3 mg/kg i.v., L-NAME 3 mg/kg, ODQ 1 mg/kg, propranolol 1 mg/kg, sildenafil 0.3 mg/kg i.v.

With `OC(CNCC(O)C1CCc2cc(F)ccc2O1)C1CCc2cc(F)ccc2O1` (racemic) [nebivolol, α,α′-iminobis(methylene)bis[6-fluoro-2-chromanmethanol]] the “effect on blood pressure” value ([1]; 1 mg/kg i.v.) was “hypotensive and bradycardic effects of moderate intensity”, the “effect on heart rate” value ([1]; 1 mg/kg i.v.) was “hypotensive and bradycardic effects of moderate intensity” and the “effect on heart rate (HR)” value [1, 7] was “significant reduction of heart rate”. For the same compound, the “effect on mean arterial pressure (MAP)” value [1, 7] was “significant hypotensive effect”, the “relaxation of HCC strips by cumulative addition” value [2] was “modest relaxant effect” and the “effect on acetylcholine-induced endothelium-dependent relaxation of HCC strips” value [2] was “not significantly modified”. The “effect on sildenafil-induced relaxation of HCC strips” value [2] was “significantly potentiated”, the “effect on acetylcholine-induced (endothelium-dependent) relaxation of HCC” value ([2]; pre-treatment with nebivolol 10 μM) was “potentiated” and the “erectile effect of 3 mg/kg/day dose compared with 10 mg/kg/day dose” value ([3]; 3 mg/kg/day for 10 days) was “equally as effective as the 10 mg/kg/day dose”. For the same compound, the “potentiation by sildenafil of erectile responses after 10 days treatment” value (“potentiation by sildenafil” below) [3, 8] was “No significant potentiation”, the “potentiation by sildenafil” value [3, 9] was “No significant potentiation” and the “effect on erectile responses in diabetic rats in the absence of the PDE5 inhibitor” value ([3]; 3 and 10 mg/kg/day for 10 days) was “significantly enhanced”. The “erectile responses in treated diabetic rats compared with non diabetic rats” value ([3]; 3 and 10 mg/kg/day for 10 days, no PDE5 inhibitor) was “not significantly different from those achieved by non diabetic rats”, the “erectile responses after sildenafil compared with non diabetic rats treated with sildenafil” value [3] was “not significant differences” and the “increase of the concentration of NOx in serum compared to the vehicle” value ([4]; 3 mg/kg i.v.) was “three-fold increase”. The “concentration of NOx in serum” value ([4]; 3 mg/kg i.v., 10 minutes after administration, vehicle 4.9±0.4, p<0.05) was 15.4 ± 2.8 µM, the “effect on serum NOx concentration” value ([4]; sildenafil 0.3 mg/kg) was “significantly higher than after vehicle” and the “effect on cGMP content in penile tissue from diabetic rats” value ([5]; 3 and 10 mg/kg/day for 10 days) was “statistically significant increase”. The “cGMP content in penile tissue from diabetic rats after administration of sildenafil” value ([5]; 3 and 10 mg/kg/day for 10 days) was “significantly higher than those obtained in diabetic rats treated with vehicle”, the “effect on NOx content in sera from diabetic rats” value [6] was “significantly increased” and the “NOx effect, comparison of doses” value ([6]; 3 vs 10 mg/kg/day) was “more marked with the 3 mg/kg/day dose”.

For `CC(C)NCC(O)COc1ccc(CC(N)=O)cc1` (centres unmarked) [atenolol], the “effect on acetylcholine-induced endothelium-dependent relaxation of HCC strips” value [2] was “not significantly modified”, the “effect on sildenafil-induced relaxation of HCC strips” value [2] was “not affected” and the “potentiation by sildenafil” value [3, 8] was “did not reach statistical significance”. The “effect of the higher dose on erectile function in diabetic rats” value ([3]; 10 mg/kg/day for 10 days) was “did not positively affect”, the “potentiation by sildenafil” value [3, 9] was “reached statistical significance” and the “erectile responses after sildenafil compared with non diabetic rats treated with sildenafil” value [3] was “significantly reduced erectile responses”. The “effect on serum NOx concentration” value ([4]; sildenafil 0.3 mg/kg) was “did not significantly alter”, the “cGMP content in penile tissue from diabetic rats after administration of sildenafil” value ([5]; 3 and 10 mg/kg/day for 10 days) was “did not modify” and the “effect on NOx content in sera from diabetic rats” value [6] was “did not affect”.

In the case of `CCCc1nn(C)c2c(=O)[nH]c(-c3cc(S(=O)(=O)N4CCN(C)CC4)ccc3OCC)nc12` [sildenafil], the “effect on blood pressure drop caused by nebivolol” value [1, 10] is reported as “significantly enhanced”, the “effect on reduction of heart rate caused by nebivolol” value [1, 10] is reported as “not modified” and the “effect on heart rate reduction caused by nebivolol” value [1, 11] is reported as “did not significantly alter”. For the same compound, the “effect on hypotension caused by nebivolol” value [1, 11] was “did not significantly alter”, the “relaxation of HCC strips by cumulative addition” value [2] was “concentration dependent relaxations” and the “effect on erectile responses to CNES in diabetic rats” value ([3]; sildenafil 0.3 mg/kg i.v., vehicle-treated diabetic rats) was “potentiation of erectile responses”. For the same compound, the “effect on serum NOx concentration” value ([4]; sildenafil 0.3 mg/kg) was “did not alter NOx levels”, the “effect on nebivolol-induced increment in serum NOx” value ([4]; nebivolol 3 mg/kg i.v., L-NAME 3 mg/kg, ODQ 1 mg/kg, propranolol 1 mg/kg, sildenafil 0.3 mg/kg) was “did not alter NOx levels or affect nebivolol-induced effects” and the “effect on cGMP levels in penile tissue from diabetic and non diabetic rats” value ([5]; sildenafil 0.3 mg/kg i.v.) was “produced an increase”. For the same compound, the “effect on serum NOx content in rats” value ([6]; sildenafil 0.3 mg/kg i.v.) was “did not modify” and the “influence on the effects of nebivolol and atenolol on NOx content in sera from diabetic rats” value ([6]; sildenafil 0.3 mg/kg i.v.) was “not influenced”.

— patent US20090181975A1, “NEBIVOLOL IN THE TREATMENT OF SEXUAL DYSFUNCTION” (FOREST LABORATORIES HOLDINGS LIMITED, priority 2008, published 2009)
